Assay results from PubChem BioAssay (NCI).
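These data come from cells grown in 96-well plates and exposed to compound for 48 hours at five concentrations. GI50: concentration for 50% inhibition of growth. The concentration for full growth arrest is given as TGI.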

What was measured:
Test in all cases: growth of human tumour cells (NCI), 48 h
[1] = test system: DU-145 prostate
[2] = test system: MCF7 breast
[3] = test system: CCRF-CEM leukemia
[4] = test system: SN12C renal
[5] = test system: A549 NSCLC
[6] = test system: T-47D breast
[7] = test system: SW-620 colon
[8] = test system: HOP-62 NSCLC
[9] = test system: OVCAR-5 ovarian
[10] = test system: SF-268 CNS
[11] = test system: HCC-2998 colon
[12] = test system: HCT-116 colon
[13] = test system: SK-MEL-28 melanoma
[14] = test system: SK-OV-3 ovarian
[15] = test system: 786-0 renal
[16] = test system: UACC-257 melanoma
[17] = test system: MDA-MB-435
[18] = test system: M14 melanoma
[19] = test system: SNB-75 CNS
[20] = test system: CAKI-1 renal
[21] = test system: EKVX NSCLC
[22] = test system: COLO 205 colon
[23] = test system: MALME-3M melanoma
[24] = test system: OVCAR-4 ovarian
[25] = test system: OVCAR-8 ovarian
[26] = test system: UO-31 renal
[27] = test system: BT-549 breast
[28] = test system: HT29 colon
[29] = test system: LOX IMVI melanoma
[30] = test system: NCI-H23 lung
[31] = test system: ACHN renal
[32] = test system: HOP-92 NSCLC
[33] = test system: SNB-19 CNS
[34] = test system: HS 578T breast
[35] = test system: UACC-62 melanoma
[36] = test system: NCI-H460 lung
[37] = test system: PC-3 prostate
[38] = test system: TK-10 renal
[39] = test system: NCI-H522 lung
[40] = test system: NCI/ADR-RES ovarian
[41] = test system: HL-60(TB) leukemia
[42] = test system: HCT-15 colon
[43] = test system: K-562 leukemia
[44] = test system: SR leukemia
[45] = test system: RXF 393 renal
[46] = test system: SF-539 CNS
[47] = test system: IGROV1 ovarian
[48] = test system: SF-295 CNS
[49] = test system: A498 renal
[50] = test system: NCI-H226 lung
[51] = test system: KM12 colon
[52] = test system: SK-MEL-5 melanoma
[53] = test system: MDA-MB-231 breast
[54] = test system: MOLT-4 leukemia
[55] = test system: U251 CNS

SMILES: C#C[C@]1(O)CC[C@H]2[C@@H]3CC=C4c5sc(Nc6cccc(C)n6)nc5CC[C@]4(C)[C@H]3CC[C@@]21C
- GI50 [1]: 2.8 µM
- TGI [1]: 12 µM
- GI50 [2]: 1.24 µM
- TGI [2]: 3.52 µM
- GI50 [3]: 1.36 µM
- TGI [3]: 6.35 µM
- GI50 [4]: 1.62 µM
- TGI [4]: 3.2 µM
- GI50 [5]: 1.89 µM
- TGI [5]: 8.31 µM
- GI50 [6]: 1.98 µM
- TGI [6]: 6.64 µM
- GI50 [7]: 1.56 µM
- TGI [7]: 3.09 µM
- GI50 [8]: 1.33 µM
- TGI [8]: 2.93 µM
- GI50 [9]: 1.7 µM
- TGI [9]: 3.78 µM
- GI50 [10]: 2.02 µM
- TGI [10]: 7.37 µM
- GI50 [11]: 2.19 µM
- TGI [11]: 5.52 µM
- GI50 [12]: 1.35 µM
- TGI [12]: 3.04 µM
- GI50 [13]: 0.543 µM
- TGI [13]: 2.28 µM
- GI50 [14]: 1.37 µM
- TGI [14]: 3.25 µM
- GI50 [15]: 0.437 µM
- TGI [15]: 1.96 µM
- GI50 [16]: 1.62 µM
- TGI [16]: 3.46 µM
- GI50 [17]: 2.24 µM
- TGI [17]: 6.44 µM
- GI50 [18]: 1.52 µM
- TGI [18]: 3.57 µM
- GI50 [19]: 1.09 µM
- TGI [19]: 8.32 µM
- GI50 [20]: 1.53 µM
- TGI [20]: 4.34 µM
- GI50 [21]: 1.39 µM
- TGI [21]: 10.1 µM
- GI50 [22]: 1.76 µM
- TGI [22]: 3.38 µM
- GI50 [23]: 1.4 µM
- TGI [23]: 3.36 µM
- GI50 [24]: 3.02 µM
- TGI [24]: 16.8 µM
- GI50 [25]: 1.45 µM
- TGI [25]: 4.78 µM
- GI50 [26]: 1.14 µM
- TGI [26]: 2.56 µM
- GI50 [27]: 1.49 µM
- TGI [27]: 3.31 µM
- GI50 [28]: 1.5 µM
- TGI [28]: 3.17 µM
- GI50 [29]: 1.39 µM
- TGI [29]: 2.79 µM
- GI50 [30]: 1.57 µM
- TGI [30]: 6.03 µM
- GI50 [31]: 1.2 µM
- TGI [31]: 3.55 µM
- GI50 [32]: 1.59 µM
- TGI [32]: 4.15 µM
- GI50 [33]: 1.2 µM
- TGI [33]: 3.82 µM
- GI50 [34]: 0.343 µM
- TGI [34]: 2.02 µM
- GI50 [35]: 1.49 µM
- TGI [35]: 3.3 µM
- GI50 [36]: 1.46 µM
- TGI [36]: 3.04 µM
- GI50 [37]: 0.979 µM
- TGI [37]: 5.54 µM
- GI50 [38]: 2.46 µM
- TGI [38]: 7.67 µM
- GI50 [39]: 1.66 µM
- TGI [39]: 3.26 µM
- GI50 [40]: 1.82 µM
- TGI [40]: 7.41 µM
- GI50 [41]: 0.71 µM
- TGI [41]: 3.46 µM
- GI50 [42]: 1.13 µM
- TGI [42]: 2.71 µM
- GI50 [43]: 0.666 µM
- TGI [43]: 3.1 µM
- GI50 [44]: 0.403 µM
- TGI [44]: 2.09 µM
- GI50 [45]: 0.23 µM
- TGI [45]: 0.579 µM
- GI50 [46]: 0.28 µM
- TGI [46]: 1.17 µM
- GI50 [47]: 2.74 µM
- TGI [47]: 11.5 µM
- GI50 [48]: 0.329 µM
- TGI [48]: 1.36 µM
- GI50 [49]: 1.28 µM
- TGI [49]: 2.62 µM
- GI50 [50]: 2.69 µM
- TGI [50]: 12.1 µM
- GI50 [51]: 1.85 µM
- TGI [51]: 5.99 µM
- GI50 [52]: 1.84 µM
- TGI [52]: 3.7 µM
- GI50 [53]: 1.24 µM
- TGI [53]: 3.38 µM
- GI50 [54]: 0.552 µM
- TGI [54]: 3.05 µM
- GI50 [55]: 0.558 µM
- TGI [55]: 1.93 µM
